Experimental findings from patent US4618682A, “2-amino-4,5-dihydro-1H-imidazole-1-carboxanilides” (McNeilab, Inc., priority 1985, dated 1986) are described below.

Series [1] deals with Spontaneously hypertensive rat. Nature of the series: Rodent Antihypertensive Screen (arterial pressure and heart rate, aortic cannula). It counts as in vivo, adult spontaneously hypertensive rats (Charles River). To be noted: for Duration / Effect on heart rate / Max. decr. in MAP: 35 mg/kg p.o., spontaneously hypertensive rat. From the text:
This test evaluates compounds for effects on arterial pressure and heart rate. In this test, the arterial pressure of adult spontaneously hypertensive rats (Charles River) is monitored directly via an aortic cannula. Rats are anesthetized with an inhalation anesthetic (methoxyflurane). The left carotid artery is isolated and cannulated. The tip of the cannula is advanced to the aorta and the cannula is exteriorized behind the neck at the level of the scapula. Animals are placed in individual cages and allowed to recover from the anesthetic and are kept unrestrained. The arterial cannula is connected to the pressure transducer which is attached to the recorder. Heart rate is determined from the arterial pressure recording. The test compounds are administered either orally (p.o.) by gavage or by intraperitoneal (i.p.) injection. The arterial pressure and heart rate are monitored for a minumum of 24 hours. A test compound is considered to be active as an antihypertensive agent if the mean arterial pressure (MAP) indicates a fall of >15 mm of Hg. Each animal serves as his own control. The results of this test employing at least 3 rats per dose level for each compound and performed with various compounds of the present invention are shown in Table I.

Series [2] in a line: heat sensitivity of isolated salt. It counts as physicochemical. The method, then: Maintained a temperature of -10° to -13° C. throughout the addition and stirred at -10° to -15° for 3 more hours. Stored the reaction mixture in the refrigerator at +4° C. overnight. Allowed to warm to +10° C. then placed in ice/ H2 O bath and acidified to pH<3 with 10% HCl. Added to 1400 ml of ice/H2 O and stirred. Filtered some insoluble material and the filtrate basified with solid K2 CO3 (keep cold!) to pH 8-9. Filtered the resulting white solid, the free base of the product. Immediately suspended in 200 ml of MeOH and dissolved by addition of ethereal HCl to pH<3. The solvent and excess HCl were removed in vacuo to yield the crude product, a white solid. The free base was regenerated again as above and converted to the hydrochloride as before. […] 210°--212° C.

The test system of series [3] is Gastric fistula rat. Nature of the series: acute gastric fistula rat test (antisecretory screen). It counts as in vivo, Female Sprague-Dawley rats. The conditions noted are these: for inhibition in vivo at 20 mg/kg: intraduodenal, 20 mg/kg I.D., read-out: % Inhibition of gastric secretion; for ED50: po, 1 hr. The method, then:
The principal antisecretory screen is the acute gastric fistula rat test which is carried out as follows: Female Sprague-Dawley rats are used for this study. The weights range from 125-250 gms; however, weights in any given test have a range of ±20 gms. The rats are fasted 24 hours before testing, water is given ad lib. At the time of fasting, the rats are placed in individual cages with wide mesh bottoms. This eliminates the problem of cannibalism and coprophagia. On the day of testing, the rats are weighed beforehand to determine the weight range and to allow for even distribution. Surgery is carried out under light ether anesthesia. As soon as the rat is anesthetized, its teeth are removed using a small pinch pliers. A midline incision is made on the abdomen about 11/2 cm long and the stomach is exposed. If, at this point, the stomach is filled with food or fecal material, the rat is discarded except for orally administered rats. In this case, the stomach contents are gently squeezed into the duodenum. Using a 4-0 polyester fiber suture, a purse string stitch is placed on the fundic portion of the stomach taking care to avoid any blood vessels in the area. A small nick is made into the stomach in the center of the purse string and a cannula, consisting of a small vinyl tube with a flange on one end, is put into the stomach and the purse string is closed tightly around the flange. Immediately following this, the rat is dosed intraduodenally using a volume of 0.5 ml per 100 gm body weight. The abdominal wall and skin are closed simultaneously with three to four 18 mm wound clips. The rat is then placed in a box containing a longitudinal slit which allows the cannula to hang freely and the rat is able to move about unencumbered. At the completion of the procedure, the time is marked 0 minutes. The rat is allowed to stabilize for 30 minutes, at which time the collection tube is discarded and replaced with a clean collection tube to receive the gastric juice. Only a one-hour collection is made for a screening study. In evaluation studies, one- and two-hour collections are made. At the end of the study, the cannula is pulled out and the rat is sacrificed. The gastric contents collected are drained into a centrifuge tube and centrifuged to pack down the sediment. The volume is read and a 1 ml aliquot of the supernatant is put into a beaker containing distilled water and titrated to pH 7 using 0.01 N NaOH. Mean values are determined for volume, titratable acid and total acid output where volume equals total ml of gastric juice minus sediment, titratable acid (mEq/1) equals amount of 0.01 N NaOH needed to titrate the acid to pH 7 times 10 and total acid output equals titratable acid times volume. Results are reported in percent inhibition over control values. In studies using oral administration, the drugs are dosed in a volume of 1 ml per 100 gm body weight one hour before surgery (pretreatment equals 90 minutes). In subcutaneous studies, the drug may be given immediately after the surgical procedure (pretreatment equals 30 minutes) or after the 30-minute stabilization period when the collection tube is changed (pretreatment time equals 0 minutes). The volume used in subcutaneous studies is 0.2 ml per 100 gm body weight.

Counter-ions that a name gives are not always drawn.

Regarding `NC1=NCCN1C(=O)Nc1ccc(Cl)c(Cl)c1` [Example 8, 2-Amino-N-(3,4-dichlorophenyl)-4,5-dihydro-1H-imidazole-1carboxamide Monohydrochloride Monohydrate, Compound with 1,1'Oxybisethane (12:1)], in series [1], the Duration was found to be 2.0 h, the “Effect on heart rate” value was -68 beats/min and the “Max. decr. in MAP” value is 44 mm Hg. In addition, the sensitivity to heat entry in series [2] is given as “sensitive to heat”. Further, in series [2] (above 50° /vac), the “loss of HCl on heating” value is “may lose HCl”. Besides, in series [3], the inhibition in vivo at 20 mg/kg came to 96% and the ED50 was 24.8 mg/kg.

Take `Cl.NC1=NCCN1C(=O)Nc1ccc(C(F)(F)F)cc1` [Example 14, 2-Amino-4,5-dihydro-N-(4-trifluoromethylphenyl)-1H-imidazole-1-carboxamide Monohydrochloride]: in series [1], the Duration was found to be 5.0 h, the “Effect on heart rate” value is on record as -98 beats/min and the “Max. decr. in MAP” value was found to be 50 mm Hg. For the same compound, in series [3], the inhibition in vivo at 20 mg/kg came out at 70% and the ED50 turned out to be 35.5 mg/kg.

Consider `NC1=NCCN1C(=O)Nc1cccc(C(F)(F)F)c1` [Example 26, 2-Amino-4,5-dihydro-N-(3-trifluoromethylphenyl)-1H-imidazole-1-carboxamide Monohydrochloride Hemihydrate], for which, in series [1], the Duration turned out to be 2.0 h, the “Effect on heart rate” value is given as -71 beats/min and the “Max. decr. in MAP” value came to 24 mm Hg. Further, the inhibition in vivo at 20 mg/kg in series [3] turned out to be 99%.

For the compound `NC1=NCCN1C(=O)Nc1ccc(Cl)cc1` [Example 27, 2-Amino-N-(4-chlorophenyl)-4,5-dihydro-1H-imidazole-1-carboxamide Monohydrochloride Hydrate (17:1)], in series [1], the Duration was found to be 15 h, the “Effect on heart rate” value is reported as -66 beats/min and the “Max. decr. in MAP” value is on record as 41 mm Hg. Besides, the “antihypertensive activity compared with corresponding rearranged N-aryl-N'-(4,5-dihydro-1H-imidazol-2-yl) ureas IV” value in series [1] (versus corresponding ureas IV) is “more potent antihypertensive activity”. Also, in series [3], the inhibition in vivo at 20 mg/kg was 95% and the ED50 came out at 29.3 mg/kg.

For orientation: ED50 means the dose that gives a 50% effect, or the effect in half of the subjects. Read a low ED50 as an effect at a small dose.
